From PubChem BioAssay AID1963984 (Molecular Pharmacology Branch, DTP, NCI, 2024)

Tested on: 233499-124-R-J3-PDC spheroids with HUVEC/MSC, viability
Experiment: Anticancer human tumor 233499-124-R-J3-PDC patient-derived colon adenocarcinoma cell line growth inhibition [PI3K]
Settings: for IC50: curve of first compound; for viability, T/C: stronger effect = lower value
In short: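 Stroma-containing spheroids: tumor line, pooled-donor HUVEC, hMSC. Treatments: targeted agents with PI3K inhibitors. Dosing: clinically relevant, half-log spacing, 10 microM ceiling without known Cmax. Read-out: cell viability.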

[1] = second compound 0.00316 µM, first compound 0.0316 µM
[2] = second compound 0.00316 µM, first compound 0.1 µM
[3] = second compound 0.00316 µM, first compound 0.316 µM
[4] = second compound 0.00316 µM, first compound 1 µM
[5] = second compound 0.00316 µM, first compound 3.16 µM
[6] = second compound 0.00316 µM, first compound 10 µM
[7] = second compound 0.01 µM, first compound 0.0316 µM
[8] = second compound 0.01 µM, first compound 0.1 µM
[9] = second compound 0.01 µM, first compound 0.316 µM
[10] = second compound 0.01 µM, first compound 1 µM
[11] = second compound 0.01 µM, first compound 3.16 µM
[12] = second compound 0.01 µM, first compound 10 µM
[13] = second compound 0.0316 µM, first compound 0.0316 µM
[14] = second compound 0.0316 µM, first compound 0.1 µM
[15] = second compound 0.0316 µM, first compound 0.316 µM
[16] = second compound 0.0316 µM, first compound 1 µM
[17] = second compound 0.0316 µM, first compound 3.16 µM
[18] = second compound 0.0316 µM, first compound 10 µM
[19] = second compound 0.1 µM, first compound 0.0316 µM
[20] = second compound 0.1 µM, first compound 0.1 µM
[21] = second compound 0.1 µM, first compound 0.316 µM
[22] = second compound 0.1 µM, first compound 1 µM
[23] = second compound 0.1 µM, first compound 3.16 µM
[24] = second compound 0.1 µM, first compound 10 µM
[25] = second compound 0.316 µM, first compound 0.0316 µM
[26] = second compound 0.316 µM, first compound 0.1 µM
[27] = second compound 0.316 µM, first compound 0.316 µM
[28] = second compound 0.316 µM, first compound 1 µM
[29] = second compound 0.316 µM, first compound 3.16 µM
[30] = second compound 0.316 µM, first compound 10 µM
[31] = second compound 1 µM, first compound 0.0316 µM
[32] = second compound 1 µM, first compound 0.1 µM
[33] = second compound 1 µM, first compound 0.316 µM
[34] = second compound 1 µM, first compound 1 µM
[35] = second compound 1 µM, first compound 3.16 µM
[36] = second compound 1 µM, first compound 10 µM
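Note: spheroids exposed to agents for seven days before readout.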
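Throughout, for viability, T/C: percent viability relative to DMSO vehicle control taken as 100%.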

C#Cc1c(F)ccc2cc(O)cc(-c3ncc4c(N5CC6CCC(C5)N6)nc(OCC56CCCN5CC(F)C6)nc4c3F)c12 (stereo not given) + COc1c(OCCCN2CCOCC2)ccc2c3n(c(=NC(=O)c4cnc(N)nc4)nc12)CCN3
IC50 (second compound 0.00316 µM): > 10000 nM
IC50 (second compound 0.01 µM): > 10000 nM
IC50 (second compound 0.0316 µM): > 10000 nM
IC50 (second compound 0.1 µM): 2230 nM
IC50 (second compound 0.316 µM): < 31.6 nM
IC50 (second compound 1 µM): < 31.6 nM
viability, T/C [1]: 85.5%
viability, T/C [2]: 100%
viability, T/C [3]: 82.9%
viability, T/C [4]: 95.1%
viability, T/C [5]: 81%
viability, T/C [6]: 67.2%
viability, T/C [7]: 81.5%
viability, T/C [8]: 95.2%
viability, T/C [9]: 86.9%
viability, T/C [10]: 91.6%
viability, T/C [11]: 81.2%
viability, T/C [12]: 80.8%
viability, T/C [13]: 93.3%
viability, T/C [14]: 91.3%
viability, T/C [15]: 74.8%
viability, T/C [16]: 92.7%
viability, T/C [17]: 71.2%
viability, T/C [18]: 68.7%
viability, T/C [19]: 62.6%
viability, T/C [20]: 86.5%
viability, T/C [21]: 71.2%
viability, T/C [22]: 63.5%
viability, T/C [23]: 44.3%
viability, T/C [24]: 29.7%
viability, T/C [25]: 24.9%
viability, T/C [26]: 26%
viability, T/C [27]: 27.1%
viability, T/C [28]: 11.7%
viability, T/C [29]: 13.3%
viability, T/C [30]: 4.16%
viability, T/C [31]: 4.26%
viability, T/C [32]: 9.48%
viability, T/C [33]: 8.52%
viability, T/C [34]: 3.87%
viability, T/C [35]: 4.18%
viability, T/C [36]: 2.6%

C=CC(=O)N1CCN(c2nc(=O)n(-c3c(C)ccnc3C(C)C)c3nc(-c4c(O)cccc4F)c(F)cc23)C(C)C1 (stereo not given) + COc1c(OCCCN2CCOCC2)ccc2c3n(c(=NC(=O)c4cnc(N)nc4)nc12)CCN3
IC50 (second compound 0.00316 µM): > 10000 nM
IC50 (second compound 0.01 µM): > 10000 nM
IC50 (second compound 0.0316 µM): > 10000 nM
IC50 (second compound 0.1 µM): > 10000 nM
IC50 (second compound 0.316 µM): < 31.6 nM
IC50 (second compound 1 µM): < 31.6 nM
viability, T/C [1]: 98.1%
viability, T/C [2]: 103%
viability, T/C [3]: 87.8%
viability, T/C [4]: 97.7%
viability, T/C [5]: 88.4%
viability, T/C [6]: 119%
viability, T/C [7]: 109%
viability, T/C [8]: 101%
viability, T/C [9]: 85.5%
viability, T/C [10]: 86.5%
viability, T/C [11]: 84.6%
viability, T/C [12]: 113%
viability, T/C [13]: 94.1%
viability, T/C [14]: 98.3%
viability, T/C [15]: 85.3%
viability, T/C [16]: 95.6%
viability, T/C [17]: 103%
viability, T/C [18]: 92.5%
viability, T/C [19]: 101%
viability, T/C [20]: 73.4%
viability, T/C [21]: 88%
viability, T/C [22]: 58.9%
viability, T/C [23]: 67.6%
viability, T/C [24]: 82%
viability, T/C [25]: 46.3%
viability, T/C [26]: 39.4%
viability, T/C [27]: 33.1%
viability, T/C [28]: 36.4%
viability, T/C [29]: 43.7%
viability, T/C [30]: 36%
viability, T/C [31]: 10%
viability, T/C [32]: 7.27%
viability, T/C [33]: 12.6%
viability, T/C [34]: 6.71%
viability, T/C [35]: 15.8%
viability, T/C [36]: 7.62%

CC(Cn1ccc(-c2ccc(C#N)c(Cl)c2)n1)NC(=O)c1cc(C(C)O)[nH]n1 (stereo not given) + COc1c(OCCCN2CCOCC2)ccc2c3n(c(=NC(=O)c4cnc(N)nc4)nc12)CCN3
IC50 (second compound 0.00316 µM): > 10000 nM
IC50 (second compound 0.01 µM): > 10000 nM
IC50 (second compound 0.0316 µM): > 10000 nM
IC50 (second compound 0.1 µM): 5040 nM
IC50 (second compound 0.316 µM): < 31.6 nM
IC50 (second compound 1 µM): < 31.6 nM
viability, T/C [1]: 92.3%
viability, T/C [2]: 107%
viability, T/C [3]: 102%
viability, T/C [4]: 102%
viability, T/C [5]: 101%
viability, T/C [6]: 96.8%
viability, T/C [7]: 91.7%
viability, T/C [8]: 98.2%
viability, T/C [9]: 73.9%
viability, T/C [10]: 102%
viability, T/C [11]: 98%
viability, T/C [12]: 86.5%
viability, T/C [13]: 86.6%
viability, T/C [14]: 98.5%
viability, T/C [15]: 100%
viability, T/C [16]: 95.3%
viability, T/C [17]: 77.1%
viability, T/C [18]: 95.3%
viability, T/C [19]: 83.7%
viability, T/C [20]: 74.1%
viability, T/C [21]: 70.4%
viability, T/C [22]: 79%
viability, T/C [23]: 55.1%
viability, T/C [24]: 42.4%
viability, T/C [25]: 30.9%
viability, T/C [26]: 35.2%
viability, T/C [27]: 32.5%
viability, T/C [28]: 28.4%
viability, T/C [29]: 23.6%
viability, T/C [30]: 27%
viability, T/C [31]: 14.8%
viability, T/C [32]: 12.6%
viability, T/C [33]: 7.23%
viability, T/C [34]: 8.58%
viability, T/C [35]: 5.75%
viability, T/C [36]: 5.05%

CC1(C)CCC(Nc2ncc(C(F)(F)F)c(-c3c[nH]c4c(P(C)(C)=O)c(C#N)ccc34)n2)CN1 (stereo not given) + COc1c(OCCCN2CCOCC2)ccc2c3n(c(=NC(=O)c4cnc(N)nc4)nc12)CCN3
IC50 (second compound 0.00316 µM): 287 nM
IC50 (second compound 0.01 µM): 205 nM
IC50 (second compound 0.0316 µM): 56.7 nM
IC50 (second compound 0.1 µM): 102 nM
IC50 (second compound 0.316 µM): < 31.6 nM
IC50 (second compound 1 µM): < 31.6 nM
viability, T/C [1]: 64.2%
viability, T/C [2]: 73.2%
viability, T/C [3]: 42%
viability, T/C [4]: 29.5%
viability, T/C [5]: 29.5%
viability, T/C [6]: 5.37%
viability, T/C [7]: 56.5%
viability, T/C [8]: 67.6%
viability, T/C [9]: 42.7%
viability, T/C [10]: 15.7%
viability, T/C [11]: 25.4%
viability, T/C [12]: 5.25%
viability, T/C [13]: 58.4%
viability, T/C [14]: 43.3%
viability, T/C [15]: 29.8%
viability, T/C [16]: 29.7%
viability, T/C [17]: 37.7%
viability, T/C [18]: 2.18%
viability, T/C [19]: 58.3%
viability, T/C [20]: 53.9%
viability, T/C [21]: 37.2%
viability, T/C [22]: 26.1%
viability, T/C [23]: 23.7%
viability, T/C [24]: 2.55%
viability, T/C [25]: 33.5%
viability, T/C [26]: 29.4%
viability, T/C [27]: 24.3%
viability, T/C [28]: 14.7%
viability, T/C [29]: 16.3%
viability, T/C [30]: 1.17%
viability, T/C [31]: 8.22%
viability, T/C [32]: 10.7%
viability, T/C [33]: 8.48%
viability, T/C [34]: 14.2%
viability, T/C [35]: 6.77%
viability, T/C [36]: 1.03%

Cn1nccc1Nc1nccc(-c2ccn(C(CO)c3ccc(Cl)c(F)c3)c(=O)c2)n1 (stereo not given) + COc1c(OCCCN2CCOCC2)ccc2c3n(c(=NC(=O)c4cnc(N)nc4)nc12)CCN3
IC50 (second compound 0.00316 µM): > 10000 nM
IC50 (second compound 0.01 µM): > 10000 nM
IC50 (second compound 0.0316 µM): > 10000 nM
IC50 (second compound 0.1 µM): 791 nM
IC50 (second compound 0.316 µM): < 31.6 nM
IC50 (second compound 1 µM): < 31.6 nM
viability, T/C [1]: 90.5%
viability, T/C [2]: 86.6%
viability, T/C [3]: 86.4%
viability, T/C [4]: 91.4%
viability, T/C [5]: 80.1%
viability, T/C [6]: 70.1%
viability, T/C [7]: 90%
viability, T/C [8]: 78.2%
viability, T/C [9]: 67.7%
viability, T/C [10]: 78.3%
viability, T/C [11]: 67%
viability, T/C [12]: 56.3%
viability, T/C [13]: 92.1%
viability, T/C [14]: 75.9%
viability, T/C [15]: 70.6%
viability, T/C [16]: 65.9%
viability, T/C [17]: 53.7%
viability, T/C [18]: 54.3%
viability, T/C [19]: 84.9%
viability, T/C [20]: 72%
viability, T/C [21]: 58.4%
viability, T/C [22]: 46.2%
viability, T/C [23]: 40.3%
viability, T/C [24]: 24.4%
viability, T/C [25]: 20.4%
viability, T/C [26]: 37.7%
viability, T/C [27]: 27.1%
viability, T/C [28]: 14.2%
viability, T/C [29]: 12%
viability, T/C [30]: 9.88%
viability, T/C [31]: 5.63%
viability, T/C [32]: 5.4%
viability, T/C [33]: 6.24%
viability, T/C [34]: 5.85%
viability, T/C [35]: 2.1%
viability, T/C [36]: 1.53%
